In US11897851B2, “Heterocyclic GLP-1 agonists” (Gasherbrum Bio, Inc., priority 2021, dated 2024):
pEC50: −log10 of the molar value.

What follows are compounds tested against T1, GLP-1 Receptor (Homo sapiens, UniProt P43220) (assay: GLP-1R agonist cAMP stimulation assay (HEK293/GLP1R/CRE-LUC cells, Cisbio cAMP dynamic 2 kit)). Conditions: HEK293/CRE-Luc cell line stably expressing the GLP-1 Receptor; 1000 cells/well; 30 min at 37° C.; 0.5 mM IBMX, 0.1% BSA; read-out: GLP1R cAMP Stimulation DR: EC50.
T1 construct: host or cells: HEK293/GLP1R/CRE-LUC (HEK293/CRE-Luc stably expressing the GLP-1 receptor)
Type: cell-based
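Note: compounds tested in half-log serial dilution, cAMP detected with cAMP-d2 and anti-cAMP cryptate antibody reagents after 1 h at room temperature.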

T1 sequence (P43220 24-463, species assumed): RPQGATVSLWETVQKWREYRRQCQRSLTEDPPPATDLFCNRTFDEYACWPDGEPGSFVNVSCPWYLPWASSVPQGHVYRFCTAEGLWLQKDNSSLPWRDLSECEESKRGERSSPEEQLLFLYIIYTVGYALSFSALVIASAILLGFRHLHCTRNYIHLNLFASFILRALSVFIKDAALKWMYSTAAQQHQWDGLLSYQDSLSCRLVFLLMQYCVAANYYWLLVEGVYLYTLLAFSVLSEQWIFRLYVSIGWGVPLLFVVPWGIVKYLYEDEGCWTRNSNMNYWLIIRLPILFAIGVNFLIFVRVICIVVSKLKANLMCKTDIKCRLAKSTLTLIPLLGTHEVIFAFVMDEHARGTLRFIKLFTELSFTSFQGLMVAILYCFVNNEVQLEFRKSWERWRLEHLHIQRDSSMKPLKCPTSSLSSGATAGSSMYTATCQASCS

Structure (SMILES)	pEC50
O=C(O)/C=C/c1nnc(CN2CCC(c3cccc(OCc4ccc(Cl)cc4F)n3)CC2)n1CC1CCC1 [Compound 229, (E)-3-(5-((4-(6-((4-chloro-2-fluorobenzyl)oxy)pyridin-2-yl)piperidin-1-yl)methyl)-4-(cyclobutylmethyl)-4H-1,2,4-triazol-3-yl)acrylic acid]	8.57
O=C(O)/C=C/c1nnc(CN2CCC(c3cccc(OCc4ccc(Cl)cc4F)n3)CC2)n1CC(F)F [Compound 230, (E)-3-(5-((4-(6-((4-chloro-2-fluorobenzyl)oxy)pyridin-2-yl)piperidin-1-yl)methyl)-4-(2,2-difluoroethyl)-4H-1,2,4-triazol-3-yl)acrylic acid]	7.39
O=C(O)/C=C/c1nnc(CN2CCC(c3cccc(OCc4ccc(Cl)cc4F)n3)CC2)n1CC1CCCO1 (centres unmarked) [Compound 231, (E)-3-(5-((4-(6-((4-chloro-2-fluorobenzyl)oxy)pyridin-2-yl)piperidin-1-yl)methyl)-4-((tetrahydrofuran-2-yl)methyl)-4H-1,2,4-triazol-3-yl)acrylic acid]	9.06
O=C(O)/C=C/c1nnc(CN2CCC(c3cccc(OCc4ccc(Cl)cc4F)n3)CC2)n1CC1CCOC1 (centres unmarked) [Compound 232, (E)-3-(5-((4-(6-((4-chloro-2-fluorobenzyl)oxy)pyridin-2-yl)piperidin-1-yl)methyl)-4-((tetrahydrofuran-3-yl)methyl)-4H-1,2,4-triazol-3-yl)acrylic acid]	8.92
O=C(O)/C=C/c1nnc(CN2CCC(c3cccc(OCc4ccc(Cl)cc4F)n3)CC2)n1CC1CCOCC1 [Compound 233, (E)-3-[5-[[4-[6-[(4-chloro-2-fluoro-phenyl)methoxy]-2-pyridyl]-1-piperidyl]methyl]-4-(tetrahydropyran-4-ylmethyl)-1,2,4-triazol-3-yl]prop-2-enoic acid]	7.59
CCn1cncc1Cn1c(/C=C/C(=O)O)nnc1CN1CCC(c2cccc3c2OC[C@@H](c2ccc(Cl)cc2)O3)CC1 [Compound 234a, (R,E)-3-(5-((4-(2-(4-chlorophenyl)-2,3-dihydrobenzo[b][1,4]dioxin-5-yl)piperidin-1-yl)methyl)-4-((1-ethyl-1H-imidazol-5-yl)methyl)-4H-1,2,4-triazol-3-yl)acrylic acid]	10.59
CC(=CC(=O)O)c1nnc(CN2CCC(c3cccc(OCc4ccc(Cl)cc4F)n3)CC2)n1CC1CCC1 [Compound 236, 3-(5-((4-(6-((4-chloro-2-fluorobenzyl)oxy)pyridin-2-yl)piperidin-1-yl)methyl)-4-(cyclobutylmethyl)-4H-1,2,4-triazol-3-yl)but-2-enoic acid]	7.42

Continued by rising pEC50, values first:

pEC50	Structure (SMILES)
8.00	COCCn1c(CN2CCC(c3cccc(OCc4ccc(Cl)cc4F)n3)CC2)nnc1C(C)=CC(=O)O [Compound 235, 3-(5-((4-(6-((4-chloro-2-fluorobenzyl)oxy)pyridin-2-yl)piperidin-1-yl)methyl)-4-(2-methoxyethyl)-4H-1,2,4-triazol-3-yl)but-2-enoic acid]
9.35	CC1(c2ccc(Cl)cc2F)Oc2cccc(C3CCN(Cc4ncc(CCC(=O)O)n4C[C@@H]4CCO4)CC3)c2O1 (stereo partly drawn) [Compound 239, 3-(2-((4-(2-(4-chloro-2-fluorophenyl)-2-methylbenzo[d][1,3]dioxol-4-yl)piperidin-1-yl)methyl)-1-(((S)-oxetan-2-yl)methyl)-1H-imidazol-5-yl)propanoic acid]
9.37	CC1(c2ccc(Cl)cc2F)Oc2cccc(C3CCN(Cc4ncc(CCC(=O)O)n4CCOC(F)F)CC3)c2O1 (centres unmarked) [Compound 238, 3-(2-((4-(2-(4-chloro-2-fluorophenyl)-2-methylbenzo[d][1,3]dioxol-4-yl)piperidin-1-yl)methyl)-1-(2-(difluoromethoxy)ethyl)-1H-imidazol-5-yl)propanoic acid]
9.54	COCCn1c(CCC(=O)O)cnc1CN1CCC(c2cccc3c2OC(C)(c2ccc(Cl)cc2F)O3)CC1 (centres unmarked) [Compound 237, 3-(2-((4-(2-(4-chloro-2-fluorophenyl)-2-methylbenzo[d][1,3]dioxol-4-yl)piperidin-1-yl)methyl)-1-(2-methoxyethyl)-1H-imidazol-5-yl)propanoic acid]
